PubChem BioAssay (NCI)
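Step 1: Grow cells in 96-well plates. Step 2: Expose to compound for 48 hours at 5 concentrations. Step 3: Interpolate endpoints linearly; if unreached, use highest concentration. GI50 = concentration required for 50% inhibition of growth. TGI denotes the concentration required for complete inhibition of growth.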

Assays:
Test in all cases: DTP human tumour cell line panel, 48 h
[1] = system: 786-0 renal
[2] = system: A498 renal
[3] = system: A549 NSCLC
[4] = system: ACHN renal
[5] = system: BT-549 breast
[6] = system: CAKI-1 renal
[7] = system: CCRF-CEM leukemia
[8] = system: COLO 205 colon
[9] = system: DU-145 prostate
[10] = system: EKVX NSCLC
[11] = system: HCC-2998 colon
[12] = system: HCT-116 colon
[13] = system: HCT-15 colon
[14] = system: HOP-62 NSCLC
[15] = system: HOP-92 NSCLC
[16] = system: HT29 colon
[17] = system: K-562 leukemia
[18] = system: KM12 colon
[19] = system: M14 melanoma
[20] = system: MDA-MB-435
[21] = system: NCI-H226 lung
[22] = system: NCI-H460 lung
[23] = system: NCI-H522 lung
[24] = system: OVCAR-3 ovarian
[25] = system: OVCAR-5 ovarian
[26] = system: OVCAR-8 ovarian
[27] = system: RXF 393 renal
[28] = system: SF-268 CNS
[29] = system: SF-295 CNS
[30] = system: SF-539 CNS
[31] = system: SK-MEL-2 melanoma
[32] = system: SK-MEL-28 melanoma
[33] = system: SK-MEL-5 melanoma
[34] = system: SK-OV-3 ovarian
[35] = system: SN12C renal
[36] = system: SNB-19 CNS
[37] = system: SNB-75 CNS
[38] = system: SW-620 colon
[39] = system: T-47D breast
[40] = system: TK-10 renal
[41] = system: U251 CNS
[42] = system: UACC-257 melanoma
[43] = system: UO-31 renal
[44] = system: HL-60(TB) leukemia
[45] = system: HS 578T breast
[46] = system: IGROV1 ovarian
[47] = system: LOX IMVI melanoma
[48] = system: MALME-3M melanoma
[49] = system: MCF7 breast
[50] = system: MDA-MB-231 breast
[51] = system: MOLT-4 leukemia
[52] = system: NCI/ADR-RES ovarian
[53] = system: OVCAR-4 ovarian
[54] = system: PC-3 prostate
[55] = system: RPMI-8226 leukemia
[56] = system: SR leukemia
[57] = system: UACC-62 melanoma

Work on `Nc1nc(N)c2c(n1)NC(c1ccc(C(F)(F)F)cc1)CC(c1ccc(Nc3nc(NCCO)nc(Nc4ccc(Cl)cc4)n3)cc1)=N2` (stereo not drawn) yielded a GI50 [1] of 1.39 µM, a TGI [1] of 2.91 µM and a GI50 [2] of 1.56 µM. For the same compound, the TGI [2] was 2.9 µM, the GI50 [3] was 1.73 µM and the TGI [3] was 3.5 µM. The GI50 [4] was 1.5 µM, the TGI [4] was 2.82 µM and the GI50 [5] was 1.57 µM. The TGI [5] was 3.16 µM, the GI50 [6] was 1.45 µM and the TGI [6] was 2.85 µM. The GI50 [7] was 1.23 µM, the TGI [7] was over 100 µM and the GI50 [8] was 1.33 µM. The TGI [8] was 2.64 µM, the GI50 [9] was 1.51 µM and the TGI [9] was 2.84 µM. The GI50 [10] was 1.52 µM, the TGI [10] was 2.96 µM and the GI50 [11] was 1.31 µM. For the same compound, the TGI [11] was 2.62 µM, the GI50 [12] was 1.05 µM and the TGI [12] was 2.41 µM. It also gave a GI50 [13] of 1.15 µM, a TGI [13] of 2.58 µM and a GI50 [14] of 1.63 µM. The TGI [14] was 3.16 µM, the GI50 [15] was 1.48 µM and the TGI [15] was 3.43 µM. It also gave a GI50 [16] of 1.36 µM, a TGI [16] of 2.99 µM and a GI50 [17] of 0.642 µM. It also gave a TGI [17] of over 100 µM, a GI50 [18] of 1.37 µM and a TGI [18] of 2.88 µM. The GI50 [19] was 1.64 µM, the TGI [19] was 3.06 µM and the GI50 [20] was 1.4 µM. The TGI [20] was 2.72 µM, the GI50 [21] was 1.84 µM and the TGI [21] was 3.91 µM. The GI50 [22] was 1.96 µM, the TGI [22] was 4.01 µM and the GI50 [23] was 1.34 µM. For the same compound, the TGI [23] was 2.72 µM, the GI50 [24] was 1.32 µM and the TGI [24] was 2.94 µM. For the same compound, the GI50 [25] was 1.6 µM, the TGI [25] was 3 µM and the GI50 [26] was 1.5 µM. It also gave a TGI [26] of 2.94 µM, a GI50 [27] of 1.14 µM and a TGI [27] of 2.5 µM. The GI50 [28] was 1.66 µM, the TGI [28] was 3.47 µM and the GI50 [29] was 1.79 µM. The TGI [29] was 3.32 µM, the GI50 [30] was 1.56 µM and the TGI [30] was 2.97 µM. The GI50 [31] was 1.67 µM, the TGI [31] was 3.07 µM and the GI50 [32] was 1.53 µM. For the same compound, the TGI [32] was 2.86 µM, the GI50 [33] was 1.55 µM and the TGI [33] was 2.89 µM. The GI50 [34] was 1.83 µM, the TGI [34] was 3.45 µM and the GI50 [35] was 1.76 µM. The TGI [35] was 3.34 µM, the GI50 [36] was 1.51 µM and the TGI [36] was 2.95 µM. It also gave a GI50 [37] of 1.7 µM, a TGI [37] of 3.93 µM and a GI50 [38] of 1.6 µM. The TGI [38] was 3.36 µM, the GI50 [39] was 1.55 µM and the TGI [39] was 3.69 µM. For the same compound, the GI50 [40] was 1.78 µM, the TGI [40] was 3.17 µM and the GI50 [41] was 1.24 µM. The TGI [41] was 2.53 µM, the GI50 [42] was 1.75 µM and the TGI [42] was 3.19 µM. It also gave a GI50 [43] of 1.43 µM and a TGI [43] of 2.76 µM.

Work on `O=C1Nc2cc(OC(F)(F)F)ccc2Oc2ccc(-c3ccnc(N4CC[C@H](O)C4)c3)cc21` yielded a GI50 [1] of 0.0316 µM, a TGI [1] of 2.74 µM and a GI50 [2] of 10.6 µM. It also gave a TGI [2] of 25.9 µM, a GI50 [3] of 0.0392 µM and a TGI [3] of 3.46 µM. For the same compound, the GI50 [4] was 0.0552 µM, the TGI [4] was 5.15 µM and the GI50 [5] was 0.138 µM. For the same compound, the TGI [5] was 1.69 µM, the GI50 [6] was under 0.01 µM and the TGI [6] was 9.64 µM. For the same compound, the GI50 [7] was 0.0251 µM, the TGI [7] was 2.6 µM and the GI50 [8] was 0.0181 µM. The TGI [8] was 0.0513 µM, the GI50 [9] was 0.0446 µM and the TGI [9] was 4.38 µM. The GI50 [10] was 0.0435 µM, the TGI [10] was 20.4 µM and the GI50 [11] was 0.03 µM. For the same compound, the TGI [11] was 1.55 µM, the GI50 [12] was under 0.01 µM and the TGI [12] was 1.19 µM. The GI50 [13] was 0.0103 µM, the TGI [13] was 2.86 µM and the GI50 [44] was under 0.01 µM. It also gave a TGI [44] of 0.105 µM, a GI50 [14] of 0.0351 µM and a TGI [14] of 4.53 µM. For the same compound, the GI50 [15] was 1.81 µM, the TGI [15] was 18.7 µM and the GI50 [45] was 0.0239 µM. It also gave a TGI [45] of 5.59 µM, a GI50 [16] of 0.0163 µM and a TGI [16] of 0.261 µM. For the same compound, the GI50 [46] was 0.0431 µM, the TGI [46] was 8.78 µM and the GI50 [17] was under 0.01 µM. It also gave a TGI [17] of 1.73 µM, a GI50 [18] of under 0.0152 µM and a TGI [18] of 2.47 µM. For the same compound, the GI50 [47] was 0.032 µM, the TGI [47] was 1.49 µM and the GI50 [19] was 0.0114 µM. For the same compound, the TGI [19] was 1.81 µM, the GI50 [48] was 0.0489 µM and the TGI [48] was 2.09 µM. For the same compound, the GI50 [49] was under 0.01 µM, the TGI [49] was 1.62 µM and the GI50 [50] was 0.048 µM. For the same compound, the TGI [50] was 1.83 µM, the GI50 [20] was under 0.01 µM and the TGI [20] was under 0.0116 µM. The GI50 [51] was 0.0327 µM, the TGI [51] was 2.16 µM and the GI50 [21] was 0.28 µM. The TGI [21] was 5.54 µM, the GI50 [22] was under 0.0129 µM and the TGI [22] was 1.06 µM. For the same compound, the GI50 [23] was under 0.0131 µM, the TGI [23] was 0.0429 µM and the GI50 [52] was 0.0306 µM. It also gave a TGI [52] of 6.25 µM, a GI50 [24] of under 0.0117 µM and a TGI [24] of 1.33 µM. It also gave a GI50 [53] of 1.12 µM, a TGI [53] of 3 µM and a GI50 [25] of 0.0492 µM. For the same compound, the TGI [25] was 6.37 µM, the GI50 [26] was 0.0343 µM and the TGI [26] was 0.651 µM. The GI50 [54] was 0.0194 µM, the TGI [54] was 5.48 µM and the GI50 [55] was 0.0349 µM. For the same compound, the TGI [55] was 2.05 µM, the GI50 [27] was under 0.0154 µM and the TGI [27] was 0.323 µM. It also gave a GI50 [28] of 0.485 µM, a TGI [28] of 15.8 µM and a GI50 [29] of 0.0166 µM. For the same compound, the TGI [29] was 6.26 µM, the GI50 [30] was 0.0227 µM and the TGI [30] was 1.04 µM. The GI50 [31] was 0.0321 µM, the TGI [31] was 18.5 µM and the GI50 [32] was 1.2 µM. For the same compound, the TGI [32] was 2.6 µM, the GI50 [33] was 0.0378 µM and the TGI [33] was 0.487 µM. For the same compound, the GI50 [34] was 0.0367 µM, the TGI [34] was 14.7 µM and the GI50 [35] was 0.103 µM. It also gave a TGI [35] of 2.68 µM, a GI50 [36] of 0.0366 µM and a TGI [36] of 5.74 µM. The GI50 [37] was under 0.0163 µM, the TGI [37] was 1.12 µM and the GI50 [56] was under 0.01 µM. It also gave a TGI [56] of 2.21 µM, a GI50 [38] of under 0.0177 µM and a TGI [38] of 1.66 µM. The GI50 [40] was 7.65 µM, the TGI [40] was 17.3 µM and the GI50 [41] was 0.0358 µM. It also gave a TGI [41] of 1.85 µM, a GI50 [42] of 3.6 µM and a TGI [42] of 9.37 µM. It also gave a GI50 [57] of under 0.0173 µM, a TGI [57] of 5.24 µM and a GI50 [43] of 0.057 µM. The TGI [43] was 5.63 µM.
